Experimental data: patent US20020151562A1, “Compositions and methods for treating allergic fungal sinusitis” (priority 2001, published 2002)
“Also recorded” adds a separate entry of the source.

Test system: patients diagnosed to have allergic fungal sinusitis resistant to treatment
Experiment: Nasal Spray Study: patient questionnaire after two months of intranasal treatment
Details: for effectiveness in treating allergic fungal sinusitis, allergic rhinitis and asthma (symptom relief): extremely low dose, patients resistant to standard treatments including corticosteroids; for side effects: low dose, patients tested
Description: Fifty-four patients were selected on the basis of their failure to respond to intranasal corticosteroids for the treatment of acute and chronic sinusitis and allergic rhinitis and positive skin tests to fungi. […] The age range was 6 years to 71 years.
Each patient was instructed to use two sprays in each nostril twice daily, AM and PM for a total of four sprays per nostril per day. Treatment lasted for two months.
Therefore, the status of the patients' symptoms were documented over a period of two months.
The following statements were posed to the patients after treatment for two months with regard to their symptoms before and after the course of treatment.

[1] = intranasal, listed as compound of formula I

## CC(C)(O)c1ccccc1CC[C@@H](SCC1(CC(=O)[O-])CC1)c1cccc(/C=C/c2ccc3ccc(Cl)cc3n2)c1.[Na+] [sodium salt of montelukast, montelukast]
52 tested, 21 reporting prior to treatment, intranasal, two months
  Total Number of Patients Post Treatment Reporting Improvement (sinus pain, post nasal drip and nasal congestion worse in cold weather): 14 patients
52 tested, 31 reporting prior to treatment, intranasal, two months
  Total Number of Patients Post Treatment that Reported Improvement (worry that sinus pain, post nasal drip and nasal congestion affect health and make it difficult to sleep): 30 patients
52 tested, 42 reporting prior to treatment, intranasal, two months
  Total Number of Patients Reporting Improvement (sinus and nasal congestion worse around tobacco smoke, fumes or strong odors): 24 patients
52 treated, 29 reporting prior to treatment, intranasal, two months
  Total Number of Patients Post Treatment Reporting Improvement (sleeping trouble due to coughing and choking attacks, post nasal drip and sinus pain): 28 patients
52 treated, 42 reporting prior to treatment, intranasal, two months
  Total Number of Patients Post Treatment that Reported Improvement (allergy medicine does not control nasal congestion, sinusitis, post nasal drip and ear congestion): 42 patients
52 treated, 44 reporting prior to treatment, intranasal, two months
  Total Number of Patients Reporting Improvement (respiratory infection goes into sinuses, ears and nose): 27 patients
52 treated, 45 reporting prior to treatment, intranasal, two months
  Total Number of Patients Post Treatment Reporting Improvement (dust, pollen and pets cause nasal congestion, sinus pain, ear pain and dizziness): 37 patients
At the end of two months, of the fifty-two patients, intranasal saline spray
  patients with positive results and alleviation of major symptoms: forty-two
intranasal
  effectiveness in treating allergic fungal sinusitis, allergic rhinitis and asthma (symptom relief): effective not only in relieving nasal congestions, sinus pain, post nasal drip, throat pain and serous otitis media, but it also helped their asthma; also recorded: effective
  side effects: no significant side effects
[1]
  effectiveness in treating allergic fungal sinusitis, allergic rhinitis and asthma (symptom relief): improvement in these non-responders was noticed
  side effects: without harmful effects
Nasal spray, low dosages
  time to some recovery after application: within one day
statement: trouble breathing or cough when walking or doing simple chores, 52 treated, 34 with trouble breathing before treatment, intranasal, two months
  Total Number of Patients Reporting Improvement of Breathing Post-Treatment: 24 patients
